According to ChEMBL document CHEMBL1201862, “PubChem BioAssay data set” (2004):
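Compound exposure: 48 hours, 5 concentrations, 96-well plates. GI50 = concentration required for 50% inhibition of growth.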 The source made the active and inactive calls. Rule as the data show it: active = GI50 up to about 1.1 µM and inactive = higher.

Columns and labels:
Experiment in all cases: NCI-60 cell line screen, 48 h
[1] = tested on: HL-60
[2] = tested on: OVCAR-4
[3] = tested on: COLO 205
[4] = tested on: M14
[5] = tested on: SK-MEL-2
[6] = tested on: SF-295
[7] = tested on: IGROV-1
[8] = tested on: MDA-MB-231
[9] = tested on: HOP-92
[10] = tested on: HCT-116
[11] = tested on: SN12C
[12] = tested on: OVCAR-8
[13] = tested on: OVCAR-3
[14] = tested on: RPMI-8226
[15] = tested on: SK-MEL-28
[16] = tested on: NCI-H226
[17] = tested on: 786-0
[18] = tested on: UO-31
[19] = tested on: SF-268
[20] = tested on: EKVX

Measured: GI50

COc1ccc2c(c1)/c(=C/C#N)c1c3ccccc3[n+](C)n21
inactive: [1] 3.05 µM | [2] 4.37 µM | [3] 2.34 µM | [4] 6.87 µM | [5] 14.5 µM | [6] 7.69 µM | [7] 7.62 µM | [8] 24 µM | [9] 1.16 µM | [10] 3.13 µM | [11] 7 µM | [12] 11.4 µM | [13] 1.34 µM | [14] 1.96 µM | [15] 5.58 µM | [16] 4.29 µM | [17] 3.95 µM | [18] 16.7 µM | [19] 8.71 µM | [20] 2.69 µM

[N-]=[N+]=C1CNC(=O)NC1=O
inactive: [1] 34 µM | [2] > 100 µM | [3] > 100 µM | [4] 58.6 µM | [5] > 100 µM | [6] > 100 µM | [7] > 100 µM | [8] > 100 µM | [9] > 100 µM | [10] > 100 µM | [11] > 100 µM | [12] > 100 µM | [13] > 100 µM | [14] 28.8 µM | [15] > 100 µM | [16] > 100 µM | [17] 60.4 µM | [18] > 100 µM | [19] > 100 µM | [20] > 100 µM

COc1cccc2c1Cc1cc(-c3ccccc3)[n+](C)n1-2
inactive: [1] 4.06 µM | [2] 3.19 µM | [3] 1.38 µM | [4] 8.43 µM | [5] 17.5 µM | [6] 20.3 µM | [7] 12.5 µM | [8] 13.2 µM | [9] 13.7 µM | [10] 3.5 µM | [11] 8.85 µM | [12] 6.84 µM | [13] 2.92 µM | [14] 4.18 µM | [15] 46.1 µM | [16] 11.7 µM | [17] 7.24 µM | [18] 22.5 µM | [19] 19.9 µM | [20] 1.5 µM
